Read-outs that look alike come from different tables or passages of the source.
What was measured:
PDGFRβ = PDGFRβ (Rattus norvegicus (Rat), UniProt Q05030); assay: PDGFRβ Cellular Assay (PDGFRb P-Y751 HTRF in A10 cells stimulated with PDGF-BB); type: cell-based
Outline: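 Phospho-Y751 PDGFRβ was measured by HTRF in lysates of A10 rat cells. Cells received compound for 3 hours before PDGF-BB stimulation (100 ng/mL working stock).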

[1] = molecular target: Tb-labeled inactive PDGFRβ (Homo sapiens (Human), UniProt P09619); assay: PDGFRβ LanthaScreen Assay; type: binding; details: read-out: PDGFR Lantha IC50
Sequence of Tb-labeled inactive PDGFRβ (P09619 33-1106): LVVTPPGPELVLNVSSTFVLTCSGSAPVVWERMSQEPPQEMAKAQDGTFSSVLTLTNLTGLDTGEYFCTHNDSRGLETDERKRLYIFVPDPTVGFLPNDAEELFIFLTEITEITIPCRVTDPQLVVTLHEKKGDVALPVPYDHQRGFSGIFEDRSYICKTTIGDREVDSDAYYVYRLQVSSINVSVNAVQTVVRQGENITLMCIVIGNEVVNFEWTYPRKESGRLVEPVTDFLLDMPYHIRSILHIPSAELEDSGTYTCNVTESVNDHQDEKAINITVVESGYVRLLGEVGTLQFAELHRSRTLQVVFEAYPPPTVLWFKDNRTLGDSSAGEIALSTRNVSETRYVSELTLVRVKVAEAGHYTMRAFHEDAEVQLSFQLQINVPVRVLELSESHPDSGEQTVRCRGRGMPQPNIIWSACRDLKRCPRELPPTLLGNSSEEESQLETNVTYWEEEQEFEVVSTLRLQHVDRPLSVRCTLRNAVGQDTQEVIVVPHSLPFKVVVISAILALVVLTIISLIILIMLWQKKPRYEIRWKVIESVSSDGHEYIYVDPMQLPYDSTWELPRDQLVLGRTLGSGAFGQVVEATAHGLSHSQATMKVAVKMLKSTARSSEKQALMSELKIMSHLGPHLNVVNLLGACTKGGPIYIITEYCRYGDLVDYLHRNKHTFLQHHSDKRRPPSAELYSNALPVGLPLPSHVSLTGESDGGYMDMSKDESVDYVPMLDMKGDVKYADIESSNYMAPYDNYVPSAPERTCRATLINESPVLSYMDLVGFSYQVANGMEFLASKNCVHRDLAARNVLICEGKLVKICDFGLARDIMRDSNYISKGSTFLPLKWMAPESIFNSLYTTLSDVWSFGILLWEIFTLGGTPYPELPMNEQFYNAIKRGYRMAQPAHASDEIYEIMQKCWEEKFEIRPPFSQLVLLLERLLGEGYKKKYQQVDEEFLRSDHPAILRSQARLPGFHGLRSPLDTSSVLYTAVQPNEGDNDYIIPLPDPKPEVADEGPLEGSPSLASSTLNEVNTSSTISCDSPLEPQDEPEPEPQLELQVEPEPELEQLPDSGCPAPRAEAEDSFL

Sequence of PDGFRβ (Q05030 32-1097): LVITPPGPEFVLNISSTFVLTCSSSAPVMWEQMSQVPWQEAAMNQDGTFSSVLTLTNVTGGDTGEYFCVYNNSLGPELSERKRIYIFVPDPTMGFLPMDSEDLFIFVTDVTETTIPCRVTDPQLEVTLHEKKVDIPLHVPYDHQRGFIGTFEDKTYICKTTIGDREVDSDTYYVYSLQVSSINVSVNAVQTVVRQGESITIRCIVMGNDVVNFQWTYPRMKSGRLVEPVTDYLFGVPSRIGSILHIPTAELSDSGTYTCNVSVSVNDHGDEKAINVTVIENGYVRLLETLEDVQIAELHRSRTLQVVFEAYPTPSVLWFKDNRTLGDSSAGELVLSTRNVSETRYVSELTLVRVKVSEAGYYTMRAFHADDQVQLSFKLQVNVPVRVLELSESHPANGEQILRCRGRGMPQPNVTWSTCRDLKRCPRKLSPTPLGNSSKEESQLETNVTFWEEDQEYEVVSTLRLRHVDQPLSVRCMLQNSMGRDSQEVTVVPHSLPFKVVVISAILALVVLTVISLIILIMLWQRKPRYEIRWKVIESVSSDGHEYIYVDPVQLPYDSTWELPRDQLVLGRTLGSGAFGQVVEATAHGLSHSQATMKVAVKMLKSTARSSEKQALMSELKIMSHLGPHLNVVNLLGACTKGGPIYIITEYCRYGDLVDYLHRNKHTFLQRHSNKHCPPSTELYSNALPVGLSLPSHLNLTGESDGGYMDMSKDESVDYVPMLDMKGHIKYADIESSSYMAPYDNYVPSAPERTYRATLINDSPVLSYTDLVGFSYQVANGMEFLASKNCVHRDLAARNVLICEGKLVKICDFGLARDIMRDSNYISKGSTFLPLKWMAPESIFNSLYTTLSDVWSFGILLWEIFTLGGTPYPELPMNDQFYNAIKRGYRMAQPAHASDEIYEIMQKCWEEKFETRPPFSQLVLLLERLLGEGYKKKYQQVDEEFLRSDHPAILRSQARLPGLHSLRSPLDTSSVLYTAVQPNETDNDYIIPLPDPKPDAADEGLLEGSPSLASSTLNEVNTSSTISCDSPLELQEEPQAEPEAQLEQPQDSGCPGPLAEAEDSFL

Structure (SMILES) | IC50 (PDGFRβ; read-out: PDGFR Cellular IC50) [nM] | IC50 [1] [nM] | IC50 (PDGFRβ; PDGFR Cellular IC50) [nM]
COc1ncccc1-c1cn2ncc(C(=O)Nc3cc(C(=O)NCCN4CCC[C@H]4C)cnc3C)c2s1 [Example 242, (R)-2-(2-methoxypyridin-3-yl)-N-(2-methyl-5-((2-(2-methylpyrrolidin-1-yl)ethyl)carbamoyl)pyridin-3-yl)pyrazolo[5,1-b]thiazole-7-carboxamide] | 6.1 | 1.7 | –
Cc1ncc(NC(=O)OC[C@H]2CCCN2C)cc1NC(=O)c1cnn2cc(-c3cnn(C)c3)sc12 [Example 244, (R)-(1-methylpyrrolidin-2-yl)methyl (6-methyl-5-(2-(1-methyl-1H-pyrazol-4-yl)pyrazolo[5,1-b]thiazole-7-carboxamido)pyridin-3-yl)carbamate] | – | 15.3 | 22.9
COc1ncccc1-c1cn2ncc(C(=O)Nc3cc(C(=O)NCCN4CCCC4C)cnc3C)c2s1 (centres unmarked) [Example 228, 2-(2-Methoxypyridin-3-yl)-N-(2-methyl-5-((2-(2-methylpyrrolidin-1-yl)ethyl)carbamoyl)pyridin-3-yl)pyrazolo[5,1-b]thiazole-7-carboxamide] | 5.6 | 1.5 | –
Cc1cc(C(=O)NCCN2CCCC2(C)C)sc1NC(=O)c1cnn2cc(-c3cnn(C)c3)sc12 [Example 182, N-(5-((2-(2,2-dimethylpyrrolidin-1-yl)ethyl)carbamoyl)-3-methylthiophen-2-yl)-2-(1-methyl-1H-pyrazol-4-yl)pyrazolo[5,1-b]thiazole-7-carboxamide] | 1680 | 1980 | –
COc1ncccc1-c1cn2ncc(C(=O)Nc3cc(NC(=O)OC[C@@H]4CCCN4C)cnc3C)c2s1 [Example 253, (S)-(1-methylpyrrolidin-2-yl)methyl (5-(2-(2-methoxypyridin-3-yl)pyrazolo[5,1-b]thiazole-7-carboxamido)-6-methylpyridin-3-yl)carbamate] | 4.4 | 1.8 | –
Cc1cc(C(=O)NCCN2CCC(O)CC2)sc1NC(=O)c1cnn2cc(-c3cnn(C)c3)sc12 [Example 191, N-(5-((2-(4-hydroxypiperidin-1-yl)ethyl)carbamoyl)-3-methylthiophen-2-yl)-2-(1-methyl-1H-pyrazol-4-yl)pyrazolo[5,1-b]thiazole-7-carboxamide] | > 3000 | > 3000 | –
Cc1cc(C(=O)NCCN2CCC(C)(C)C2)sc1NC(=O)c1cnn2cc(-c3cnn(C)c3)sc12 [Example 189, N-(5-((2-(3,3-dimethylpyrrolidin-1-yl)ethyl)carbamoyl)-3-methylthiophen-2-yl)-2-(1-methyl-1H-pyrazol-4-yl)pyrazolo[5,1-b]thiazole-7-carboxamide] | 72.3 | 319 | –
Cc1ncc(NC(=O)OC[C@@H]2CCCN2C(C)C)cc1NC(=O)c1cnn2cc(-c3cnn(C)c3)sc12 [Example 245, (S)-(1-isopropylpyrrolidin-2-yl)methyl (6-methyl-5-(2-(1-methyl-1H-pyrazol-4-yl)pyrazolo[5,1-b]thiazole-7-carboxamido)pyridin-3-yl)carbamate] | 18.1 | 10.8 | –
COc1ncccc1-c1cn2ncc(C(=O)Nc3cc(NC(=O)CN4CCCC4(C)C)cnc3C)c2s1 [Example 233, N-(5-(2-(2,2-dimethylpyrrolidin-1-yl)acetamido)-2-methylpyridin-3-yl)-2-(2-methoxypyridin-3-yl)pyrazolo[5,1-b]thiazole-7-carboxamide] | 1.3 | 1.1 | –
Cc1cc(C(=O)NCCN2CCC3(CCC3)CC2)sc1NC(=O)c1cnn2cc(-c3cnn(C)c3)sc12 [Example 203, N-(5-((2-(7-azaspiro[3.5]nonan-7-yl)ethyl)carbamoyl)-3-methylthiophen-2-yl)-2-(1-methyl-1H-pyrazol-4-yl)pyrazolo[5,1-b]thiazole-7-carboxamide] | 449 | 1060 | –

Reference: patent publication US20240109917A1 (ACTELION PHARMACEUTICALS LTD, priority 2020, published 2024)
